Reference: patent US20230144023A1, “USE OF BUTYLPHTHALIDE AND DERIVATIVE THEREOF” (CSPC NBP PHARMACEUTICAL CO., LTD, priority 2020, published 2023)

Test system: MM.1S xenograft tumor
Assay: Influence of NBP on in vivo anti-tumor efficacy of Bortezomib, MM.1S xenograft (Example 8)
Parameters: species or system Nu/Nu mice
Experimental: After in vitro resuscitation and passage of MM.1S cells to a sufficient amount, the cells were counted by a microscope, and diluted with a serum-free medium to adjust the cell count to about 1×10^8 cells/mL. The cell suspension was kept in an ice-water bath. The MM.1S cell suspension was extracted by a sterile syringe and inoculated into the subcutaneous tissue of the forelimb axilla of the Nu/Nu mice. […] Monotherapy group of Palbociclib: intragastric administration at 70 mg/kg, qd (the administration was commenced on day 0); […] The solvent group was given the solvent at the same frequency and with the same administration method as Bortezomib and NBP. The administration period was 16 days, and the administration volume was 10 mL/kg. […] Animals were weighed at set time once per day after the commencement of administration. After animals were grouped, the long diameter and the short diameter of the tumor were measured twice every week. […] V=1⁄2×A×B^2 […] (4) Tumor growth inhibition rate: Note: V: tumor volume; A: tumor length; B: tumor width; RTV: relative tumor volume; TVnd: tumor volume on day n; TV0d: tumor volume on day 0; […]: mean relative tumor volume on day n; TVXn: mean tumor volume of the therapy group on day n; TVX0: mean tumor volume of the therapy group on day 0; TVMn: mean tumor volume of the solvent group on day n; and TVM0: mean tumor volume of the solvent group on day 0 At the end of the experiment, after the animals were euthanized by CO2 asphyxiation, the tumors were excised and weighed.

[1] = day 14, Bor 0.5 mg/kg, Pal 70 mg/kg, NBP 60 mg/kg, alone or combined
[2] = day 14, Bor 0.5 mg/kg, Pal 70 mg/kg, NBP 60 mg/kg, alone or combined, mean, n=6

CCCCC1OC(=O)c2ccccc21 (stereo not shown) [NBP, 3-n-butylphthalide]
influence of NBP on the tumor inhibition efficacy of Bortezomib (NBP/Bortezomib 60/0.5 mg/kg compared with monotherapy group of Bortezomib, end of experiment): did not have obvious negative influence
influence of NBP on the antitumor efficacy of combined therapy of Bortezomib/Palbociclib (NBP/Bortezomib/Palbociclib compared with Bortezomib/Palbociclib, end of experiment): did not have obvious negative influence
body weights of the mice (between groups, P>0.05): no significant difference
Body weight (day 14, Bor 0.5 mg/kg i.p. biw, Pal 70 mg/kg qd i.g., NBP 60 mg/kg bid gavage, alone or combined, mean, n=6): 24.9 g
T/C % [1]: 73.8%
TGI % [1]: 25.8%
RTV [2]: 7.2
TV [2]: 938.1 mm^3
Tumor weight inhibition rate (end of experiment, Bor 0.5 mg/kg, Pal 70 mg/kg, NBP 60 mg/kg, alone or combined): 36.9%
Tumor weight (end of experiment, Bor 0.5 mg/kg, Pal 70 mg/kg, NBP 60 mg/kg, alone or combined, mean, n=6, in g (unit assumed)): 1.040
